Paper PMC10446182, “Reduced steroid activation of elephant shark GR and MR after inserting four amino acids from the DNA-binding domain of lamprey corticoid receptor-1” (PLOS ONE, 2023)
Like-named read-outs stand apart in the source and are kept apart here.

Legend:
Assay in all cases: luciferase reporter transactivation in HEK293 cells
Assay type in all cases: cell-based
[1] = target: T1, FLAG-tagged wild-type elephant shark GR (Callorhinchus milii, UniProt A0A4W3H7L4)
T1 construct: full-length, N-terminal FLAG tag, transiently expressed in HEK293 cells
T1 sequence (A0A4W3H7L4 1-704): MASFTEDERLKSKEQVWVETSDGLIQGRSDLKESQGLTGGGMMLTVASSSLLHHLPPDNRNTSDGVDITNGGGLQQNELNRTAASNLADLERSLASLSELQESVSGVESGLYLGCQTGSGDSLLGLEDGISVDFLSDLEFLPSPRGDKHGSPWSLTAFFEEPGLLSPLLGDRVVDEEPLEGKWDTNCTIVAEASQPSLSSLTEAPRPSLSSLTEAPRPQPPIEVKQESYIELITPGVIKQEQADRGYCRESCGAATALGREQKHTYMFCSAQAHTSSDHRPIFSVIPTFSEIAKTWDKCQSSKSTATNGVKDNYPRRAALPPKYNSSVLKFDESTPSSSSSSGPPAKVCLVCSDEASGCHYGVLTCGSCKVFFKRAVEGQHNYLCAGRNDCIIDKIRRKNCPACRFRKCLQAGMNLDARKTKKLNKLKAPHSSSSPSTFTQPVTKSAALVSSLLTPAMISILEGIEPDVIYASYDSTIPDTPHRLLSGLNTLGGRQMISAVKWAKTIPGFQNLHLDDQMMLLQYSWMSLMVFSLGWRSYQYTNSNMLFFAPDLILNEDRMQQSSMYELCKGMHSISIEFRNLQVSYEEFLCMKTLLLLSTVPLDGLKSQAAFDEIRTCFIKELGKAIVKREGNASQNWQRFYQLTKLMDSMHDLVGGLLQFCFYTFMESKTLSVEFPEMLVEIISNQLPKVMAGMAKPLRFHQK
Description: (§1) luciferase reporter transactivation in HEK293 cells on FLAG-tagged wild-type elephant shark GR

[2] = target: T2, FLAG-tagged wild-type elephant shark MR (Callorhinchus milii, UniProt A0A4W3I5J5); conditions: MMTV-luc promoter; agonist; 37 C
T2 construct: gene nr3c2; full-length, N-terminal FLAG tag, transiently expressed in HEK293 cells
T2 sequence (A0A4W3I5J5 entry or part of it): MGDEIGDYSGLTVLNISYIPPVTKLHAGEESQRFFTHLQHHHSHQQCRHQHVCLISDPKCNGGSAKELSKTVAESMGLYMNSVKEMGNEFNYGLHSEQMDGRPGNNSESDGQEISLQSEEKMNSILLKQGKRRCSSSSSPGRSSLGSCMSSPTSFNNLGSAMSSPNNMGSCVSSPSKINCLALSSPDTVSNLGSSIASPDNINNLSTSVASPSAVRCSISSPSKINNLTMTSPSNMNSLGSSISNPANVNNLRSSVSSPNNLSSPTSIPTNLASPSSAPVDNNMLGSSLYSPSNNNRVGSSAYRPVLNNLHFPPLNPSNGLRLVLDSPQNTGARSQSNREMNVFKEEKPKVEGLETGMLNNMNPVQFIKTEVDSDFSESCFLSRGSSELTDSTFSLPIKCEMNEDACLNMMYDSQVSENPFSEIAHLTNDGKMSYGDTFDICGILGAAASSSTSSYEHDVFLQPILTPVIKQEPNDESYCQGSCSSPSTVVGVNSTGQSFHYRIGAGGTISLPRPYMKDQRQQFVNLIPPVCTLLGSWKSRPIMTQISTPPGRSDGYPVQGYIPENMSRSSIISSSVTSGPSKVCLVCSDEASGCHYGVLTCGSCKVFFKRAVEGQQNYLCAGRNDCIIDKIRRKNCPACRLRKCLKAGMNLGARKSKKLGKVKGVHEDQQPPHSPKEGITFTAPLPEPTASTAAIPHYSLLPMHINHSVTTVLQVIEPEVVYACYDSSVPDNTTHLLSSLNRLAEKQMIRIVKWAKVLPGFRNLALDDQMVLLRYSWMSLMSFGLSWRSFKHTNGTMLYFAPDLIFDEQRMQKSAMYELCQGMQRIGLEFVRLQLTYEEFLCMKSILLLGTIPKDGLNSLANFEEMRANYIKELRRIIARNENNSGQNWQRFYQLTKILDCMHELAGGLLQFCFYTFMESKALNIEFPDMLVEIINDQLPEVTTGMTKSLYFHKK
Description: luciferase reporter transactivation in HEK293 cells on FLAG-tagged wild-type elephant shark MR

[3] = target: T3, FLAG-tagged wild-type elephant shark GR (Callorhinchus milii, UniProt A0A4W3H7L4); conditions: MMTV-luc promoter; agonist; 37 C
T3 construct: full-length, N-terminal FLAG tag, transiently expressed in HEK293 cells
Description: as §1

SMILES | EC50 [1] | EC50 [2] | EC50 [3]
C[C@]12CC[C@H]3[C@@H](CCC4=CC(=O)CC[C@@]43C)[C@@H]1CC[C@@H]2C(=O)CO [DOC, 11-deoxycorticosterone] | 13 nM | – | –
C[C@]12CCC(=O)C=C1CC[C@@H]1[C@@H]2[C@@H](O)C[C@]2(C=O)[C@@H](C(=O)CO)CC[C@@H]12 [Aldo, aldosterone] | 14.1 nM | – | –
C[C@]12C[C@H](O)[C@H]3[C@@H](CCC4=CC(=O)CC[C@@]43C)[C@@H]1CC[C@@H]2C(=O)CO [CORT, Corticosterone] | 6 nM | – | –

Continued, values first:

EC50 [1] | EC50 [2] | EC50 [3] | SMILES
– | 0.13 nM | – | C[C@]12CCC(=O)C=C1CC[C@@H]1[C@@H]2CC[C@@]2(C)[C@H]1CC[C@]2(O)C(=O)CO [S, 11-deoxycortisol]
25.2 nM | 0.5 nM | 13.9 nM | C[C@]12CCC(=O)C=C1CC[C@@H]1[C@@H]2[C@@H](O)C[C@@]2(C)[C@H]1CC[C@]2(O)C(=O)CO [Cortisol]
